Patent US20120214862A1, “MODULATION OF FACTOR 7 EXPRESSION” (ISIS Pharmaceuticals, Inc., priority 2009, published 2012)
In the oligonucleotide strings, read from the 5' end, every base follows the letter of its sugar. An asterisk marks phosphorothioate; unmarked linkages are phosphodiester. Other units and linkages are bracketed, terminal groups are in braces. A string of capitals states the bases alone. e = 2'-O-(2-methoxyethyl) (MOE); [5mC] = 5-methylcytosine; d = 2'-deoxy (DNA)

How the values were obtained:
human Factor 7 mRNA [1] = assay: Antisense inhibition of human Factor 7 mRNA in HepB3 cells, lipofectin, 50 nM, real-time RT-PCR; type: cell-based; settings: for % Inhibition (human Factor 7 mRNA): 50 nM, ~24 h
Procedure, shortened: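 Percent inhibition, untreated cells as reference: derived from RNA collected about 24 hours post-transfection of 4,000-cell wells, with the human RTS 2927 primer probe set and adjustment for total RNA content (RIBOGREEN®).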

human Factor 7 mRNA [2] = assay: Dose-dependent antisense inhibition of human Factor 7 in HepB3 cells, transfection with lipofectin; type: cell-based; settings: for percent inhibition of Factor 7 mRNA, 3.125 nM / percent inhibition of Factor 7 mRNA, 6.25 nM / percent inhibition of Factor 7 mRNA, 12.5 nM / percent inhibition of Factor 7 mRNA, 25.0 nM / percent inhibition of Factor 7 mRNA, 50.0 nM / percent inhibition of Factor 7 mRNA, 100.0 nM: HepB3, lipofectin, ~16 h; for percent inhibition of Factor 7 mRNA, relative to untreated control cells: lipofectin, HepB3 cells, 16 hours
Method: Cells were plated at a density of 4,000 cells per well and treated with lipofectin reagent with 3.125 nM, 6.25 nM, 12.5 nM, 25 nM, 50 nM, and 100 nM concentrations of antisense oligonucleotide, as indicated in Table 3. After a treatment period of approximately 16 hours, RNA was isolated from the cells and Factor 7 mRNA levels were measured by real-time RT-PCR, as described herein. Human Factor 7 primer probe set RTS 2927 (forward sequence: […], incorporated herein as SEQ ID NO: 164; reverse sequence: […], incorporated herein as SEQ ID NO: 165; probe sequence: TGGGTGGTCTCCGCGGCCX, incorporated herein as SEQ ID NO: 166) was used to measure mRNA levels. Factor 7 mRNA levels were adjusted according to total RNA content as measured by RIBOGREEN®. Results are presented as percent inhibition of Factor 7, relative to untreated control cells.
Cells were plated at a density of 4,000 cells per well and transfected using lipofectin reagent with 6.25 nM, 12.5 nM, 25.0 nM, 50.0 nM, and 100.0 nM concentrations of antisense oligonucleotide, as indicated in Table 7. After a treatment period of approximately 16 hours, RNA was isolated from the cells and Factor 7 mRNA levels were measured by real-time RT-PCR, as described herein. Human Factor 7 primer probe set RTS 2927 was used to measure mRNA levels. Factor 7 mRNA levels were adjusted according to total RNA content as measured by RIBOGREEN®. Results are presented as percent inhibition of Factor 7, relative to untreated control cells.
Cells were plated at a density of 4,000 cells per well and transfected using lipofectin reagent with 3.125 nM, 6.25 nM, 12.5 nM, 25 nM, 50 nM, and 100 nM concentrations of antisense oligonucleotide, as specified in Table 14. After a treatment period of approximately 16 hours, RNA was isolated from the cells and Factor 7 mRNA levels were measured by quantitative real-time PCR. Human Factor 7 primer probe set RTS 2927 was used to measure mRNA levels. Factor 7 mRNA levels were adjusted according to total RNA content, as measured by RIBOGREEN®. Results are presented as percent inhibition of Factor 7, relative to untreated control cells.

[3] = Example 1, HepB3 cells, lipofectin, relative to untreated control cells
[4] = HepB3 cells, lipofectin, 50 nM antisense oligonucleotide, approximately 24 hours, primer probe set RTS 2927, relative to untreated control

Substance | % Inhibition (human Factor 7 mRNA) (human Factor 7 mRNA [1]; [3]) | % Inhibition of human Factor 7 mRNA levels (human Factor 7 mRNA [1]; [4]) | percent inhibition of Factor 7 mRNA, 3.125 nM (human Factor 7 mRNA [2]; Example 2, 3.125 nM) | percent inhibition of Factor 7 mRNA, 6.25 nM (human Factor 7 mRNA [2]; Example 2) | percent inhibition of Factor 7 mRNA, 12.5 nM (human Factor 7 mRNA [2]; Example 2, 12.5 nM) | percent inhibition of Factor 7 mRNA, 25.0 nM (human Factor 7 mRNA [2]; Example 2) | percent inhibition of Factor 7 mRNA, 50.0 nM (human Factor 7 mRNA [2]; Example 2) | percent inhibition of Factor 7 mRNA, 100.0 nM (human Factor 7 mRNA [2]; Example 2) | percent inhibition of Factor 7 mRNA, 6.25 nM (human Factor 7 mRNA [2]; Example 5) | percent inhibition of Factor 7 mRNA, 12.5 nM (human Factor 7 mRNA [2]; Example 5, 12.5 nM) | percent inhibition of Factor 7 mRNA, 25.0 nM (human Factor 7 mRNA [2]; Example 5) | percent inhibition of Factor 7 mRNA, 50.0 nM (human Factor 7 mRNA [2]; Example 5) | percent inhibition of Factor 7 mRNA, 100.0 nM (human Factor 7 mRNA [2]; Example 5) | also measured
407643 (antisense e[5mC]*eA*e[5mC]*eA*e[5mC]*dA*dT*dG*dG*dA*dG*dT*d[5mC]*dA*dG*e[5mC]*eA*eT*e[5mC]*eG) [compound 407643] | 84% | 80% | 16% | 59% | 68% | 76% | 92% | 95% | 36% | 49% | 70% | 83% | 93% | % Inhibition (human Factor 7 mRNA) (human Factor 7 mRNA [1]; Example 6 microwalk, nucleobases 15098 to 15122 of SEQ ID NO: 1, HepB3, lipofectin): 69%
407936 (antisense eG*eG*e[5mC]*eA*eT*dT*d[5mC]*dG*d[5mC]*d[5mC]*dA*d[5mC]*d[5mC]*dA*dT*eG*e[5mC]*eA*eT*eG) [compound 407936] | 91% | – | 45% | 77% | 79% | 86% | 91% | 90% | – | – | – | – | – | –
416438 (antisense e[5mC]*eA*eG*eG*eA*dG*d[5mC]*d[5mC]*d[5mC]*d[5mC]*d[5mC]*dA*dT*dT*d[5mC]*eT*eG*eG*e[5mC]*eA) [compound 416438] | – | 63% | – | – | – | – | – | – | 11% | 33% | 56% | 75% | 82% | –
407641 (antisense e[5mC]*e[5mC]*eT*eG*eA*dG*dG*d[5mC]*d[5mC]*dA*dG*d[5mC]*dA*dG*dA*eT*e[5mC]*eA*e[5mC]*eG) [compound 407641] | 94% | 73% | 53% | 53% | 71% | 84% | 88% | 89% | – | – | – | – | – | % Inhibition of human Factor 7 mRNA levels (human Factor 7 mRNA [1]; HepB3 cells, gapmers targeted to nucleobases 14707 to 14732 of SEQ ID NO: 1 (Table 11)): 68%
422294 (antisense eG*eA*dG*dT*dT*d[5mC]*dT*dG*d[5mC]*dA*dG*dG*dA*dG*d[5mC]*eG*eG*e[5mC]*e[5mC]*eT) [compound 422294] | – | – | – | – | – | – | – | – | – | – | – | – | – | % Inhibition of human Factor 7 mRNA levels (human Factor 7 mRNA [1]; HepB3 cells, gapmers (5-10-5, 3-14-3, 2-13-5 MOE) targeted to nucleobases 4868 to 4899 of SEQ ID NO: 1): 78%; percent inhibition of Factor 7 mRNA, relative to untreated control cells (human Factor 7 mRNA [2]; 3.125 nM): 9%; percent inhibition of Factor 7 mRNA, relative to untreated control cells (human Factor 7 mRNA [2]; 12.5 nM): 32%; percent inhibition of Factor 7 mRNA, relative to untreated control cells (human Factor 7 mRNA [2]; 25 nM): 61%; percent inhibition of Factor 7 mRNA, relative to untreated control cells (human Factor 7 mRNA [2]; 50 nM): 77%; percent inhibition of Factor 7 mRNA, relative to untreated control cells (human Factor 7 mRNA [2]; 100 nM): 84%; percent inhibition of Factor 7 mRNA, relative to untreated control cells (human Factor 7 mRNA [2]): 21%
416449 (antisense eT*eA*eG*eG*eT*dA*dT*dT*dT*dT*dT*d[5mC]*d[5mC]*dA*d[5mC]*eA*eT*eG*eG*eA) [compound 416449] | – | 68% | – | – | – | – | – | – | 19% | 33% | 45% | 65% | 85% | –
407910 (antisense eA*eG*eT*e[5mC]*e[5mC]*dT*dT*dG*d[5mC]*dT*dG*d[5mC]*d[5mC]*dA*dT*e[5mC]*e[5mC]*eG*eA*eG) [compound 407910] | 86% | 72% | 31% | 44% | 69% | 68% | 82% | 89% | – | – | – | – | – | –
416507 (antisense eG*eG*eT*eT*eA*d[5mC]*dT*dG*dA*dG*d[5mC]*dG*d[5mC]*dG*dG*eA*eA*eG*eA*eA) [compound 416507] | – | 73% | – | – | – | – | – | – | 30% | 53% | 70% | 77% | 72% | –
416446 (antisense eG*eG*eT*e[5mC]*eA*d[5mC]*dT*dG*d[5mC]*dA*dG*dT*dA*d[5mC]*dT*eG*e[5mC]*eT*e[5mC]*eA) [compound 416446] | – | 64% | – | – | – | – | – | – | 25% | 24% | 50% | 69% | 64% | –
416472 (antisense e[5mC]*eA*eG*e[5mC]*e[5mC]*dT*dT*dG*dG*d[5mC]*dT*dT*dT*d[5mC]*dT*e[5mC]*eT*e[5mC]*e[5mC]*eA) [compound 416472] | – | 76% | – | – | – | – | – | – | 16% | 44% | 64% | 80% | 88% | –
416549 (antisense eG*eA*e[5mC]*eA*eA*dT*dG*dG*dT*d[5mC]*dA*dG*dG*dG*d[5mC]*eT*eG*eG*eT*eT) [compound 416549] | – | 68% | – | – | – | – | – | – | 38% | 44% | 63% | 73% | 78% | % Inhibition of human Factor 7 mRNA levels (human Factor 7 mRNA [1]; HepB3 cells, gapmers targeted to nucleobases 11830 to 11869 of SEQ ID NO: 1 (Table 9)): 69%
416455 (antisense e[5mC]*eG*e[5mC]*e[5mC]*eG*dG*d[5mC]*dT*d[5mC]*dT*dG*d[5mC]*dT*d[5mC]*dA*eT*e[5mC]*e[5mC]*e[5mC]*e[5mC]) [compound 416455] | – | 72% | – | – | – | – | – | – | 28% | 44% | 64% | 78% | 87% | % Inhibition of human Factor 7 mRNA levels (human Factor 7 mRNA [1]; HepB3 cells, gapmers targeted to nucleobases 13760 to 13789 of SEQ ID NO: 1 (Table 10)): 51%
407606 (antisense e[5mC]*eT*eG*eG*eT*d[5mC]*d[5mC]*dT*dT*dG*d[5mC]*dA*dG*dG*dA*eG*e[5mC]*e[5mC]*e[5mC]*e[5mC]) [compound 407606] | 89% | 57% | 20% | 0% | 49% | 55% | 83% | 84% | – | – | – | – | – | –
